Experimental data as given in US5369125A, “Cholesterol-lowering agents” (Merck & Co., Inc., priority 1993, dated 1994).
In brackets after ≈: the same amount, converted by molar mass.

Assays:
Squalene Synthase = target: T1, Squalene Synthase (Rattus norvegicus, UniProt Q02769); assay: Squalene synthase assay (standard in vitro protocol, rat liver microsomes, [4-14C]farnesyl pyrophosphate); format: biochemical; details: 30° C., 20 minutes
T1 construct: The livers from these rats were homogenized in 5 volumes (mL/g) of ice cold 50 mM HEPES; from tissue; host or cells: liver microsomes of male Charles River CD rats fed 0.1% lovastatin
T1 sequence (Q02769 1-416): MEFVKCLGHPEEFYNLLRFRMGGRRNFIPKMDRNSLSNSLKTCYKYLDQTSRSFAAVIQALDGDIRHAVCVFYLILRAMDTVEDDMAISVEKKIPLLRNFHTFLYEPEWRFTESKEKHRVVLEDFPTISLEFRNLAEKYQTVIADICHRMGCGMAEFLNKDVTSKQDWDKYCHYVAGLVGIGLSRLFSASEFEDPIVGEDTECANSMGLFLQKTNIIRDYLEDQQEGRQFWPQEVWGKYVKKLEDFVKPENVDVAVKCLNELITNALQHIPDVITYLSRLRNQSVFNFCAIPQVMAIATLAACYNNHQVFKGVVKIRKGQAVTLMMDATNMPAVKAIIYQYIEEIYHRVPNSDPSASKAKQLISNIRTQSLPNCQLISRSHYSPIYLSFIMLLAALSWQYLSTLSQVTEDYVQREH
Procedure: The intrinsic squalene synthase inhibitory activity of representative compounds of this invention was measured by the standard in vitro protocol described below:
Preparation of Rat Liver Microsomes
Male, CHARLES RIVER CD® rats (120 to 150 g) were fed a diet containing 0.1% lovastatin for 4 days. The livers from these rats were homogenized in 5 volumes (mL/g) of ice cold 50 mM HEPES (4-(2-hydroxyethyl)-1-piperazine-ethanesulfonic acid), 5 mM EDTA(ethylenediaminetetraacetic acid) pH 7.5 with a Potter-Elvehjem type tissue grinder. The homogenate was centrifuged twice at 20,000× g for 15 min. at 4° C., discarding the pellet each time. The supernatant was then centrifuged at 100,000× g for 1 hr at 4° C. The resulting microsomal pellet was resuspended in a volume of the above homogenizing buffer equal to one-fifth the volume of the original homogenate. This microsomal preparation has a protein concentration of about 7 mg/mL. The microsomal suspensions were stored in aliquots at -70° C. Squalene synthase activity in these aliquots is stable for a least several months.
Partial Purification of Prenyl Transferase
Prenyl transferase was purified to use in the enzymatic synthesis of radiolabelled farnesyl pyrophosphate. […]

[1] = tested on: Aspergillus fumigatus MF4839; assay: Broth dilution antifungal assay (MIC), Aspergillus fumigatus; format: cell-based; details: 24 to 48 hours at 29° C., read-out: Minimum Inhibitory Concentration (MIC)
Procedure: (§1) The compounds are particularly active towards filamentous fungi and yeasts including Candida albicans and Cryptococcus neoformans. The sensitivity of filamentous fungi and yeast was determined using inhibitor dilution assays in microtiter format. The compounds were dissolved in 10% DMSO at 256 μg/mL and serially diluted in (DIFCO) Yeast Nitrogen Base supplemented with 1% glucose (YNBD) by two-fold dilutions yielding final drug concentrations ranging from 128-0.06 μg/mL. The wells were filled with 150 μL of inoculated media. Exponential phase Candida and Cryptococcus cells were diluted in YNBD such that the inoculum was 1.5-7.5×10^3 cells/mL. Aspergillus spores were harvested from a well-sporulated Sabouraud Dextrose Agar (SDA) slant in 0.01% Tween 80 and diluted into media to give an inoculum of 1×10^3 spores/mL. The microtiter dishes were incubated at 35° C. for 24 to 48 hours. […] After recording the MIC of yeasts, plates were shaken on a (SARSTEDT) TPM2 shaker to resuspend the cells and a MIC-2000 inoculator (DYNATECH) was used to transfer a 1.5 μL sample from each well in the microplate to a spot in a single-well tray containing SDA. Inoculated trays were incubated at 35° C. and results were recorded at 24 h or 48 h (for Cryptococcus). The minimum fungicidal concentration (MFC) was defined as the lowest concentration of drug showing no growth or less than 4 colonies per spot. […]

Candida albicans MY1055 = assay: Minimum fungicidal concentration, Candida albicans; format: cell-based; details: 35° C.
Procedure: as §1

[2] = tested on: Cryptococcus neoformans MY1051; assay: Minimum fungicidal concentration, Cryptococcus neoformans; format: cell-based; details: 35° C.
Procedure: as §1

[3] = target: T2, Farnesyl-protein transferase (Ftase) from bovine brain (Bos taurus, UniProt P29702+P49355); assay: Farnesyl-transferase assay (inhibition of Ras farnesylation in vitro); format: biochemical; details: Ras-CVLS 3.5 μM, 0.25 μM [3H]FPP, partially purified bovine brain enzyme
T2 construct: Farnesyl-protein transferase (Ftase) from bovine brain was chromatographed on DEAE--Sephacel; from tissue; host or cells: bovine brain, partially purified by chromatography
Procedure: FARNESYL-TRANSFERASE ASSAY
Farnesyl-protein transferase (Ftase) from bovine brain was chromatographed on DEAE--Sephacel (Pharmacia, 0-0.8M NaCl gradient elution), N-octyl agarose (Sigma, 0-0.6M NaCl gradient elution), and a MONO Q HPLC column (Pharmacia, 0-0.3M NaCl gradient). Ras-CVLS at 3.5 μM, 0.25 μM [^3 H]FPP, and the indicated compounds were incubated with this partially purified enzyme preparation. The Ftase data is a measurement of the ability of the test compound to inhibit Ras farnesylation in vitro.

Ras farnesylation = details: Hancock et al., Casey et al., Schafer et al.; cited from earlier work

Row | IC50 (Squalene Synthase) | MIC [1] | IC50 [3] | Compound | MFC (Candida albicans MY1055) | MFC [2] | Inhibition of Ras farnesylation in vivo (Ras farnesylation)
1 | 3.5 nM | 16 µg/mL (≈ 24.2 µM) | 3300 nM | C=C(CC[C@]12O[C@H](C)[C@@](O)(C(=O)O)[C@](C(=O)O)(O1)[C@H](OC(=O)/C=C/[C@@H](C)C[C@@H](C)CC)[C@H]2O)[C@@H](OC(C)=O)[C@H](C)Cc1ccccc1 [Compound 128, IIA-3-methyl] | 128 µg/mL (≈ 194 µM) | 0.5 µg/mL (≈ 0.757 µM) | –
2 | – | – | – | CC[C@H](C)C(=O)O[C@H]1CCC=C2C=C[C@H](C)[C@H](CC[C@@H]3C[C@@H](O)CC(=O)O3)[C@H]21 [compactin] | – | – | Inhibition of Ras farnesylation in vivo has been demonstrated
3 | – | – | – | CC[C@H](C)C(=O)O[C@H]1C[C@@H](C)C=C2C=C[C@H](C)[C@H](CC[C@@H]3C[C@@H](O)CC(=O)O3)[C@H]21 [lovastatin] | – | – | Inhibition of Ras farnesylation in vivo has been demonstrated
